Assay results published in article PMC12044090 (EJNMMI Research, 2025).

Target: T1, FAP (HT1080-hFAP cells) (Homo sapiens, UniProt Q12884)
T1 sequence (Q12884 1-760): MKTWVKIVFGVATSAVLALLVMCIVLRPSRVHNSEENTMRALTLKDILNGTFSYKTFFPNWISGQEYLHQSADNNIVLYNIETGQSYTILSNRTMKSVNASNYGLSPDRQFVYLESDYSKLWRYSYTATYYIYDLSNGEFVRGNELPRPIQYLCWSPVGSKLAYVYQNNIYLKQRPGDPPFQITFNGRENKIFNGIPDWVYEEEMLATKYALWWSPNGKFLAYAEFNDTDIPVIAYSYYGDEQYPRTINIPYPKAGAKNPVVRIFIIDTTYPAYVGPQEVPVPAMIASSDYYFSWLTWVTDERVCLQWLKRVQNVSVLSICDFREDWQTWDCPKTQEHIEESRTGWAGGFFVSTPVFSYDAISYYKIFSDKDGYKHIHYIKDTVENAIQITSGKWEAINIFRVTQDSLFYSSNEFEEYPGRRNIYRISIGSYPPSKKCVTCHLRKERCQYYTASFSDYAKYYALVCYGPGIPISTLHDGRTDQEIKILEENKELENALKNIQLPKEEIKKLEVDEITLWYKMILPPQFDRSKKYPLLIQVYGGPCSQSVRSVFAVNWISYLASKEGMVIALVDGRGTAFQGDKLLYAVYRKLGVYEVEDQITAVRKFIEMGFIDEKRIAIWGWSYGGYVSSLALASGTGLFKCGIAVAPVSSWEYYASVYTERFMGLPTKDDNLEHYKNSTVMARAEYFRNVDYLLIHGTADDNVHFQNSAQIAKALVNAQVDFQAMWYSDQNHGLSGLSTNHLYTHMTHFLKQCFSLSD
Assay: Affinity assay: competition against [68Ga]Ga-FAP2286 in HT1080-hFAP cells
Type: binding

SMILES | IC50 [nM]
CCCCCC(=O)N[C@H]1CSCc2cc(CSCCNC(=O)CN3CCN(CC(=O)O)CCN(CC(=O)O)CCN(CC(=O)O)CC3)cc(c2)CSC[C@@H](C(=O)O)NC(=O)[C@H](Cc2ccccc2)NC(=O)[C@H](CCC(N)=O)NC(=O)[C@H]([C@@H](C)O)NC(=O)[C@@H]2CCCN2C(=O)[C@@H]2CCCN2C1=O [FAP2286] | 6.58 ± 1.6
CCCCCC(=O)N[C@H]1CSCc2cc(CSCCNC(=O)CCCCCNC(=O)CC[C@H](NC(=O)CCC(C(=O)O)N3CCN(CC(=O)O)CCN(CC(=O)O)CCN(CC(=O)O)CC3)C(=O)NCCCOc3ccc4nccc(C(=O)NCC(=O)N5CC(F)(F)C[C@H]5C#N)c4c3)cc(c2)CSC[C@@H](C(=O)O)NC(=O)[C@H](Cc2ccccc2)NC(=O)[C@H](CCC(N)=O)NC(=O)[C@H]([C@@H](C)O)NC(=O)[C@@H]2CCCN2C(=O)[C@@H]2CCCN2C1=O (some centres unmarked) [BiFAPI] | 11.4 ± 1.66
